Data published in patent publication US20230127046A1, “G9a INHIBITOR” (RIKEN, priority 2019, published 2023).

Molecular target: T1, recombinant human G9a protein (Homo sapiens, UniProt Q96KQ7)
T1 construct: purchased BPS Bioscience Inc. #51001
T1 sequence (Q96KQ7 785-1210 limits assumed): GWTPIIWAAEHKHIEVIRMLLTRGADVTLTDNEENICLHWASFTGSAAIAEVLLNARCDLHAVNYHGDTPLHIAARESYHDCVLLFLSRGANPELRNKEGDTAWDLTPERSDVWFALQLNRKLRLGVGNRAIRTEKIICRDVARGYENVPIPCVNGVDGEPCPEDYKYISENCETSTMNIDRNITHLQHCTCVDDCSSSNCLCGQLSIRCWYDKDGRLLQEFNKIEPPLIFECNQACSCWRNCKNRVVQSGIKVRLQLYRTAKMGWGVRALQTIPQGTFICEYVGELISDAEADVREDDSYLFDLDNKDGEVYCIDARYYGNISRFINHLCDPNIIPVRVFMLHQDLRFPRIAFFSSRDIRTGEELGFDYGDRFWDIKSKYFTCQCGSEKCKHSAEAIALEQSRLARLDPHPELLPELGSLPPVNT
Assay: G9a inhibitory activity test (ALPHA)
Type: biochemical
Settings: biotinylated histone H3 peptide (1-21), SAM, read-out: Inhibitory activity (G9a IC50 value)
Procedure: The G9a inhibitory activity of each compound was evaluated by measuring the enzymatic activity of G9a by amplified luminescence proximity homogeneous assay (ALPHA). First, 7.5 μL of a dilution of recombinant human G9a protein (BPS Bioscience Inc., #51001) diluted to 0.05 to 0.1 nM with a Tris buffer solution (50 mM Tris-HCl [pH 9.0], 50 mM NaCl, 0.01% Tween-20, 1 mM DTT), and 0.5 μL of the test compound were added to each well of a 384-well microplate (AlphaPlate-384 Shallow Well, PerkinElmer, Inc., #6008359), mixed by vortex, and incubated at room temperature for 10 minutes. 500 nM biotinylated histone H3 peptide (1-21) (AnaSpec Inc., #61702) and 150 μM SAM (Sigma-Aldrich Co. LLC, #A7007) were mixed at 1:1 in advance, and 2 μL of the mixture was added to each well, mixed by vortex, and then incubated at room temperature for 1 hour. AlphaLISA anti-H3K9me2 acceptor beads (PerkinElmer, Inc., #AL117C) and AlphaScreen streptavidin donor beads (PerkinElmer, Inc., #6760002B) were each diluted with an epigenetic buffer (PerkinElmer, Inc., AlphaLISA Epigenetics Buffer Kit #AL008C) to a final concentration of […] after addition. These dilutions were added to the reaction solution in the dark and incubated at room temperature for 1 hour in the dark. Then, measurement was performed using the EnSpire Alpha plate reader (PerkinElmer, Inc., Waltham, Mass., USA). The G9a inhibitory activity of the test compound was calculated as a compound concentration necessary for suppressing G9a enzymatic activity by 50% (IC50 value), by determining the percent inhibition of the compound when the value of a control without the addition of the compound was defined as 0% and the value of a control without the addition of the enzyme was defined as 100%.

Row | IC50 | Compound
1 | ≥ 200 nM | COCc1ccc(NC(=O)C(CCC2CC2)NC(=O)c2[nH]c3c(c2C)C(=O)CC(C)(C)C3)cn1 (centres unmarked) [Example 1-60]
2 | 50 to 200 nM | Cc1ccc(NC(=O)C(CCC2CC2)NC(=O)c2[nH]c3c(c2C)C(=O)CC(C)(C)C3)cc1 (centres unmarked) [Example 1-61]
3 | 50 to 200 nM | Cc1c(C(=O)NC(CCC2CC2)C(=O)Nc2cccc(C#N)c2)[nH]c2c1C(=O)CC(C)(C)C2 (centres unmarked) [Example 1-62]
4 | 50 to 200 nM | COc1ccc(NC(=O)C(CCC2CC2)NC(=O)c2[nH]c3c(c2C)C(=O)CC(C)(C)C3)cc1 (centres unmarked) [Example 1-63]
5 | ≥ 200 nM | Cc1c(C(=O)NC(CCC2CC2)C(=O)N2CCc3cc(C#N)ccc32)[nH]c2c1C(=O)CC(C)(C)C2 (centres unmarked) [Example 1-64]
6 | ≥ 200 nM | Cc1c(C(=O)NC(CCC2CC2)C(=O)Nc2ccc(SC(F)F)cc2)[nH]c2c1C(=O)CC(C)(C)C2 (centres unmarked) [Example 1-65]
7 | < 50 nM | CCc1cc(C#N)ccc1NC(=O)C(CCC1CC1)NC(=O)c1[nH]c2c(c1C)C(=O)CC(C)(C)C2 (centres unmarked) [Example 1-66]
8 | < 50 nM | Cc1c(C(=O)NC(CCC2CC2)C(=O)NCc2ccc(CN(C)C)cc2)[nH]c2c1C(=O)CC(C)(C)C2 (centres unmarked) [Example 1-67]
9 | ≥ 200 nM | Cc1c(C(=O)NC(CCC2CC2)C(=O)NC2(c3ccc(C#N)cc3)CC2)[nH]c2c1C(=O)CC(C)(C)C2 (centres unmarked) [Example 1-69]
10 | 50 to 200 nM | Cc1c(C(=O)NC(CCC2CC2)C(=O)Nc2ccc(O)nc2)[nH]c2c1C(=O)CC(C)(C)C2 (centres unmarked) [Example 1-70]
11 | ≥ 200 nM | Cc1c(C(=O)NC(CCC2CC2)C(=O)Nc2ccc(OC3COC3)nc2)[nH]c2c1C(=O)CC(C)(C)C2 (centres unmarked) [Example 1-71]
12 | ≥ 200 nM | CSc1ccc(NC(=O)C(CCC2CC2)NC(=O)c2[nH]c3c(c2C)C(=O)CC(C)(C)C3)cn1 (centres unmarked) [Example 1-72]
13 | ≥ 200 nM | Cc1c(C(=O)NC(CCC2CC2)C(=O)Nc2ccncc2)[nH]c2c1C(=O)CC(C)(C)C2 (centres unmarked) [Example 1-73]
14 | 50 to 200 nM | Cc1c(C(=O)NC(CCC2CC2)C(=O)Nc2ccc(N(C)C)nc2)[nH]c2c1C(=O)CC(C)(C)C2 (centres unmarked) [Example 1-74]
15 | ≥ 200 nM | CCc1nc(C)ccc1NC(=O)C(CCC1CC1)NC(=O)c1[nH]c2c(c1C)C(=O)CC(C)(C)C2 (centres unmarked) [Example 1-75]
16 | ≥ 200 nM | Cc1c(C(=O)NC(CCC2CC2)C(=O)N2CCc3cc(Br)ccc32)[nH]c2c1C(=O)CC(C)(C)C2 (centres unmarked) [Example 1-76]
17 | ≥ 200 nM | Cc1ccc2c(c1)CCN2C(=O)C(CCC1CC1)NC(=O)c1[nH]c2c(c1C)C(=O)CC(C)(C)C2 (centres unmarked) [Example 1-77]
18 | ≥ 200 nM | Cc1ccc2c(c1)N(C(=O)C(CCC1CC1)NC(=O)c1[nH]c3c(c1C)C(=O)CC(C)(C)C3)CC2 (centres unmarked) [Example 1-78]
19 | < 50 nM | CSc1ccccc1NC(=O)C(CCC1CC1)NC(=O)c1[nH]c2c(c1C)C(=O)CC(C)(C)C2 (centres unmarked) [Example 1-83]
20 | < 50 nM | CCc1ccccc1NC(=O)C(CCC1CC1)NC(=O)c1[nH]c2c(c1C)C(=O)CC(C)(C)C2 (centres unmarked) [Example 1-84]
21 | < 50 nM | Cc1c(C(=O)NC(CCC2CC2)C(=O)Nc2ccc(OC3CCN(C)CC3)cc2)[nH]c2c1C(=O)CC(C)(C)C2 (centres unmarked) [Example 1-85]
22 | ≥ 200 nM | Cc1c(C(=O)NC(C(=O)Nc2ccc(OC3CCN(C)CC3)nc2)c2ccccc2)[nH]c2c1C(=O)CC(C)(C)C2 (centres unmarked) [Example 1-86]

Row | IC50 | Compound
23 | < 50 nM | O=C(NC(CCC1CC1)C(=O)Nc1ccc(OC2COC2)nc1)c1ccc(Nc2ccncc2)cc1 (centres unmarked) [Example 1-88]
24 | < 50 nM | O=C(NC(CCC1CC1)C(=O)Nc1ccc(O)nc1)c1ccc(Nc2ccncc2)cc1 (centres unmarked) [Example 1-89]
25 | ≥ 200 nM | CCCCC(NC(=O)c1[nH]c2c(c1C)C(=O)CC(C)(C)C2)C(=O)Nc1cccc2[nH]ccc12 (centres unmarked) [Example 1-90]
26 | ≥ 200 nM | CCCCC(NC(=O)c1[nH]c2c(c1C)C(=O)CC(C)(C)C2)C(=O)Nc1ccc2[nH]ncc2c1 (centres unmarked) [Example 1-91]
27 | ≥ 200 nM | CCCCC(NC(=O)c1[nH]c2c(c1C)C(=O)CC(C)(C)C2)C(=O)NCc1cccc(N2CCN(C)CC2)c1 (centres unmarked) [Example 1-92]
28 | 50 to 200 nM | CCCCC(NC(=O)c1[nH]c2c(c1C)C(=O)CC(C)(C)C2)C(=O)Nc1cccc2c1CCCC2 (centres unmarked) [Example 1-93]
29 | ≥ 200 nM | CCCCC(NC(=O)c1[nH]c2c(c1C)C(=O)CC(C)(C)C2)C(=O)Nc1cccc2cnccc12 (centres unmarked) [Example 1-94]
30 | ≥ 200 nM | CCCCC(NC(=O)c1[nH]c2c(c1C)C(=O)CC(C)(C)C2)C(=O)Nc1ccc2[nH]c(C)cc2c1 (centres unmarked) [Example 1-95]
31 | ≥ 200 nM | CCCCC(NC(=O)c1[nH]c2c(c1C)C(=O)CC(C)(C)C2)C(=O)Nc1ccc2[nH]ccc2c1 (centres unmarked) [Example 1-96]
32 | ≥ 200 nM | CCCCC(NC(=O)c1[nH]c2c(c1C)C(=O)CC(C)(C)C2)C(=O)Nc1nn(CC)c2ccccc12 (centres unmarked) [Example 1-97]
33 | < 50 nM | CCCCC(NC(=O)c1[nH]c2c(c1C)C(=O)CC(C)(C)C2)C(=O)Nc1ccc(CN2CCCC2)cc1 (centres unmarked) [Example 1-98]
34 | ≥ 200 nM | CCCCC(NC(=O)c1[nH]c2c(c1C)C(=O)CC(C)(C)C2)C(=O)Nc1cccc(CN2CCOCC2)c1 (centres unmarked) [Example 1-99]
35 | < 50 nM | CCCCC(NC(=O)c1[nH]c2c(c1C)C(=O)CC(C)(C)C2)C(=O)Nc1ccc2[nH]cc(CN(C)C)c2c1 (centres unmarked) [Example 1-100]
36 | ≥ 200 nM | CCCCC(NC(=O)c1[nH]c2c(c1C)C(=O)CC(C)(C)C2)C(=O)Nc1ccc2cn[nH]c2c1 (centres unmarked) [Example 1-101]
37 | ≥ 200 nM | CCCCC(NC(=O)c1[nH]c2c(c1C)C(=O)CC(C)(C)C2)C(=O)Nc1ccccc1CN1CCN(C)CC1 (centres unmarked) [Example 1-102]
38 | ≥ 200 nM | CCCCC(NC(=O)c1[nH]c2c(c1C)C(=O)CC(C)(C)C2)C(=O)Nc1ccc(N2CCN(C)CC2)cc1 (centres unmarked) [Example 1-103]
39 | 50 to 200 nM | CCCCC(NC(=O)c1[nH]c2c(c1C)C(=O)CC(C)(C)C2)C(=O)N[C@@H]1CCCc2ccccc21 (some centres unmarked) [Example 1-104]
40 | ≥ 200 nM | CCCCC(NC(=O)c1[nH]c2c(c1C)C(=O)CC(C)(C)C2)C(=O)Nc1cccc(-c2ccccn2)c1 (centres unmarked) [Example 1-105]
41 | ≥ 200 nM | CCCCC(NC(=O)c1[nH]c2c(c1C)C(=O)CC(C)(C)C2)C(=O)Nc1cccc(C(=O)OC)c1C (centres unmarked) [Example 1-106]
42 | ≥ 200 nM | CCCCC(NC(=O)c1[nH]c2c(c1C)C(=O)CC(C)(C)C2)C(=O)Nc1cccnc1C (centres unmarked) [Example 1-107]
43 | < 50 nM | CCCCC(NC(=O)c1[nH]c2c(c1C)C(=O)CC(C)(C)C2)C(=O)Nc1cccc(CN(CC)CC)c1 (centres unmarked) [Example 1-108]
44 | ≥ 200 nM | CCCCC(NC(=O)c1[nH]c2c(c1C)C(=O)CC(C)(C)C2)C(=O)Nc1cc(OC)c(OC)c(OC)c1 (centres unmarked) [Example 1-109]

Same assay, conditions: read-out: Inhibitory activity (G9a IC50)

Row | IC50 | Compound
45 | 50 to 200 nM | CCCCC(NC(=O)c1[nH]c2c(c1C)C(=O)CC(C)(C)C2)C(=O)Nc1ccc(N2CCCN(C)CC2)cc1 (centres unmarked) [Example 1-110]
46 | 50 to 200 nM | CCCCC(NC(=O)c1[nH]c2c(c1C)C(=O)CC(C)(C)C2)C(=O)N[C@@H]1CCc2ccccc21 (some centres unmarked) [Example 1-111]
47 | ≥ 200 nM | CCCCC(NC(=O)c1[nH]c2c(c1C)C(=O)CC(C)(C)C2)C(=O)NC1CCC(N(C)C)CC1 (centres unmarked) [Example 1-112]
48 | < 50 nM | CCCCC(NC(=O)c1[nH]c2c(c1C)C(=O)CC(C)(C)C2)C(=O)Nc1cccc(CN2CCCC2)c1 (centres unmarked) [Example 1-113]
49 | ≥ 200 nM | CCCCC(NC(=O)c1[nH]c2c(c1C)C(=O)CC(C)(C)C2)C(=O)Nc1cc(NC(C)=O)ccc1OC (centres unmarked) [Example 1-114]
50 | ≥ 200 nM | CCCCC(NC(=O)c1[nH]c2c(c1C)C(=O)CC(C)(C)C2)C(=O)Nc1cccc2c1CCN(C(=O)OC(C)(C)C)C2 (centres unmarked) [Example 1-115]
51 | ≥ 200 nM | Cc1cccc2c1CCN2C(=O)C(CCC1CC1)NC(=O)c1[nH]c2c(c1C)C(=O)CC(C)(C)C2 (centres unmarked) [Example 1-116]
52 | ≥ 200 nM | Cc1c(C(=O)NC(CCC2CC2)C(=O)N2CCc3c(O)cccc32)[nH]c2c1C(=O)CC(C)(C)C2 (centres unmarked) [Example 1-117]
53 | ≥ 200 nM | Cc1c(C(=O)NC(CCC2CC2)C(=O)N2CCc3c(OCCCN4CCCCC4)cccc32)[nH]c2c1C(=O)CC(C)(C)C2 (centres unmarked) [Example 1-118]
54 | ≥ 200 nM | Cc1c(C(=O)NC(CCC2CC2)C(=O)N2CCc3c(OCCCN(C)C)cccc32)[nH]c2c1C(=O)CC(C)(C)C2 (centres unmarked) [Example 1-119]
55 | 50 to 200 nM | Cc1c(C(=O)NC(CCC2CC2)C(=O)N2CCc3c(OCCN4CCCC4)cccc32)[nH]c2c1C(=O)CC(C)(C)C2 (centres unmarked) [Example 1-120]
56 | ≥ 200 nM | Cc1c(C(=O)NC(CCC2CC2)C(=O)N2CCc3c(OCC4CCN(C)CC4)cccc32)[nH]c2c1C(=O)CC(C)(C)C2 (centres unmarked) [Example 1-121]
